Source: patent US20230265151A1, “GIP/GLP1 CO-AGONIST COMPOUNDS” (priority 2020, published 2023)
Read-outs that look alike come from different tables or passages of the source.

Legend:
Assay type in all cases: cell-based
hGCGR = biological target: T1, hGCGR (Homo sapiens, UniProt P47871); assay: Functional cAMP formation (HTRF) in HEK-293 clonal cells expressing hGCGR, 0.1% bovine casein, without or with 1.0% human serum albumin; conditions: cAMP, 37° C.
T1 construct: expressed in transfected cells
Summary of the method: (§1)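 Cells were stimulated with peptide for 30 min at 37° C, then intracellular cAMP was measured by competitive HTRF (665/620 nm ratio) and converted to nM using a cAMP standard curve. Relative EC50 and Emax came from four-parameter logistic fits of percent maximal response against peptide concentration.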

hGLP-1R = hGLP-1R (Homo sapiens, UniProt P43220); assay: Functional cAMP formation (HTRF) in HEK-293 clonal cells expressing hGLP-1R, 0.1% bovine casein, without or with 1.0% human serum albumin; design: expressed in transfected cells; conditions: for Emax: percent of maximal response to GLP-1(7-36)NH2; for EC50: cAMP
Summary of the method: as §1

hGIPR = biological target: T2, hGIPR (Homo sapiens, UniProt P48546); assay: Functional cAMP formation (HTRF) in HEK-293 clonal cells expressing hGIPR, 0.1% bovine casein, without or with 1.0% human serum albumin; conditions: for Emax: percent of maximal response to GIP(1-42)NH2; for EC50: cAMP
T2 construct: expressed in transfected cells
T2 sequence (P48546 22-466): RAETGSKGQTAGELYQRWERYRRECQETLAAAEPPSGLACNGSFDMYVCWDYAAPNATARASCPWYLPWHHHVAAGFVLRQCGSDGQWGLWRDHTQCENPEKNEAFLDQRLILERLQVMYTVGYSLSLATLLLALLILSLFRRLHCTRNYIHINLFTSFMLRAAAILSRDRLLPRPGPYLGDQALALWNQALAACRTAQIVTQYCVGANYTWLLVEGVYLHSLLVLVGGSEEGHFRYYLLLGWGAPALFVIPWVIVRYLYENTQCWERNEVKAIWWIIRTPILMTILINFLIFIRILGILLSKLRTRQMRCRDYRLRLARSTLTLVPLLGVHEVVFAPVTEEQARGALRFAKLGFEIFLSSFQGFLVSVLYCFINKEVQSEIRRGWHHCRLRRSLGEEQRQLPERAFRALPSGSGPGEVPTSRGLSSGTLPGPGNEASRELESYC
Summary of the method: as §1

[1] = 0.1% bovine casein (no human serum albumin), geometric mean, read-out: hGCGR EC50, nM (SEM, n)
[2] = 0.1% bovine casein and 1.0% human serum albumin, geometric mean (SEM, n), read-out: hGCGR EC50, nM (SEM, n)
[3] = HEK293, cAMP, 37° C., 0.1% bovine casein, arithmetic mean, read-out: hGLP-1R Emax, % ± SEM
[4] = 37° C., 0.1% bovine casein (no human serum albumin), geometric mean, read-out: hGLP-1R EC50, nM (SEM, n)
[5] = HEK293, cAMP, 37° C., 0.1% bovine casein and 1.0% human serum albumin, read-out: hGIPR Emax, % ± SEM
[6] = 37° C., 0.1% bovine casein (no human serum albumin), geometric mean, read-out: hGIPR EC50, nM (SEM, n)
[7] = hGCGR EC50, nM (SEM, n), 0.1% bovine casein (no human serum albumin), geometric mean
[8] = hGCGR EC50, nM (SEM, n), 0.1% bovine casein and 1.0% human serum albumin, geometric mean (SEM, n)
[9] = HEK293, read-out: hGLP-1R Emax, % ± SEM, cAMP, 37° C., 0.1% bovine casein, arithmetic mean
[10] = hGLP-1R EC50, nM (SEM, n), 37° C., 0.1% bovine casein (no human serum albumin), geometric mean
[11] = HEK293, read-out: hGIPR Emax, % ± SEM, cAMP, 37° C., 0.1% bovine casein and 1.0% human serum albumin
[12] = hGIPR EC50, nM (SEM, n), 37° C., 0.1% bovine casein (no human serum albumin), geometric mean

Chain of hGLP-1R (P43220 24-463): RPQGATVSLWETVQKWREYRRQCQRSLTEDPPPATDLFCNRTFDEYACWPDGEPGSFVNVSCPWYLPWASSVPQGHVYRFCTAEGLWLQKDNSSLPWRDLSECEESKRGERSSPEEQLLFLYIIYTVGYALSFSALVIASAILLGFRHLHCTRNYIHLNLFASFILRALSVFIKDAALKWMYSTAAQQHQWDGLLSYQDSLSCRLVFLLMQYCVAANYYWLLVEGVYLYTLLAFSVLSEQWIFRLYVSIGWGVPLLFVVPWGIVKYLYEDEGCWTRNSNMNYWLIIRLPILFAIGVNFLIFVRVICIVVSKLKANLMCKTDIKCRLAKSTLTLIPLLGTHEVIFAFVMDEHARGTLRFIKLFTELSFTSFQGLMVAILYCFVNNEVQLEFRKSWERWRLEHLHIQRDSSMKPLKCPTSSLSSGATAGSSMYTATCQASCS
T1 sequence (P47871 26-477): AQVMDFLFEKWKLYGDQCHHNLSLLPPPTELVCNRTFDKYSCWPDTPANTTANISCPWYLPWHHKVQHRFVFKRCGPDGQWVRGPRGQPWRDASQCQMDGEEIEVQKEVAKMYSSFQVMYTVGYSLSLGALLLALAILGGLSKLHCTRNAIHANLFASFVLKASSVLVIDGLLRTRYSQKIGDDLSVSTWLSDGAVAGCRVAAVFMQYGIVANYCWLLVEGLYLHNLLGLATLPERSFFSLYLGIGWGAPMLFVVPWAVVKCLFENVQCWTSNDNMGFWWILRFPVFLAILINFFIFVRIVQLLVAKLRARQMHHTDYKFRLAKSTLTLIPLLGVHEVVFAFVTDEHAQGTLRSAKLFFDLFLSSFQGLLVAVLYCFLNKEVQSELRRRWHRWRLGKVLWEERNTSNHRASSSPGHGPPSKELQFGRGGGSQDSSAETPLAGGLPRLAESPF

## CC[C@H](C)[C@H](NC(=O)[C@H](CC(C)C)NC(=O)[C@](C)(Cc1ccc(O)cc1)NC(=O)[C@H](CCCCNC(=O)COCCOCCNC(=O)CCCCCCCNC(=O)CC[C@H](NC(=O)CCCCCCCCCCCCC(=O)O)C(=O)O)NC(=O)[C@@H](NC(=O)[C@H](Cc1ccccc1)NC(=O)[C@H](CCCN)NC(=O)C(C)(C)NC(=O)[C@H](CCC(N)=O)NC(=O)[C@H](C)NC(=O)[C@H](CCC(N)=O)NC(=O)[C@H](CCCN)NC(=O)[C@H](CC(=O)O)NC(=O)[C@H](CC(C)C)NC(=O)[C@](C)(CC(C)C)NC(=O)[C@@H](NC(=O)C(C)(C)NC(=O)[C@H](Cc1ccncc1)NC(=O)[C@H](CC(=O)O)NC(=O)[C@H](CO)NC(=O)[C@@H](NC(=O)[C@](C)(Cc1ccccc1F)NC(=O)[C@@H](NC(=O)CNC(=O)[C@H](CCC(=O)O)NC(=O)C(C)(C)NC(=O)[C@@H](N)Cc1ccc(O)cc1)[C@@H](C)O)[C@@H](C)O)[C@@H](C)CC)[C@@H](C)CC)C(=O)N[C@@H](CCCCNC(=O)COCCOCCNC(=O)CCCCCCCNC(=O)CC[C@H](NC(=O)CCCCCCCCCCCCC(=O)O)C(=O)O)C(=O)NCC(=O)NCC(=O)N1CCC[C@H]1C(=O)N[C@@H](CO)C(=O)N[C@@H](CO)C(=O)NCC(=O)N[C@@H](C)C(=O)N1CCC[C@H]1C(=O)N1CCC[C@H]1C(=O)N1CCC[C@H]1C(=O)N[C@@H](CO)C(N)=O [Example 450]
hGCGR; [1]
  EC50: > 9950 nM
hGCGR; [2]
  EC50: > 9950 nM
hGLP-1R; [3]
  Emax: 120%
hGLP-1R; [4]
  EC50: 0.201 nM
hGLP-1R; 37° C., 0.1% bovine casein and 1.0% human serum albumin, geometric mean (SEM, n), read-out: hGLP-1R EC50, nM (SEM, n)
  EC50: 32.3 nM
hGIPR; [5]
  Emax: 91.4%
hGIPR; [6]
  EC50: 0.0138 nM

## CC[C@H](C)[C@H](NC(=O)[C@H](CC(C)C)NC(=O)[C@](C)(Cc1ccc(O)cc1)NC(=O)[C@H](CCCCNC(=O)CCCCCCCNC(=O)COCCOCCNC(=O)CC[C@H](NC(=O)CCCCCCCCCCCCC(=O)O)C(=O)O)NC(=O)[C@@H](NC(=O)[C@H](Cc1ccccc1)NC(=O)[C@H](CCCN)NC(=O)C(C)(C)NC(=O)[C@H](CCC(N)=O)NC(=O)[C@H](C)NC(=O)[C@H](CCC(N)=O)NC(=O)[C@H](CCCN)NC(=O)[C@H](CC(=O)O)NC(=O)[C@H](CC(C)C)NC(=O)[C@](C)(CC(C)C)NC(=O)[C@@H](NC(=O)C(C)(C)NC(=O)[C@H](Cc1ccncc1)NC(=O)[C@H](CC(=O)O)NC(=O)[C@H](CO)NC(=O)[C@@H](NC(=O)[C@](C)(Cc1ccccc1F)NC(=O)[C@@H](NC(=O)CNC(=O)[C@H](CCC(=O)O)NC(=O)C(C)(C)NC(=O)[C@@H](N)Cc1ccc(O)cc1)[C@@H](C)O)[C@@H](C)O)[C@@H](C)CC)[C@@H](C)CC)C(=O)N[C@@H](CCCCNC(=O)CCCCCCCNC(=O)COCCOCCNC(=O)CC[C@H](NC(=O)CCCCCCCCCCCCC(=O)O)C(=O)O)C(=O)NCC(=O)NCC(=O)N1CCC[C@H]1C(=O)N[C@@H](CO)C(=O)N[C@@H](CO)C(=O)NCC(=O)N[C@@H](C)C(=O)N1CCC[C@H]1C(=O)N1CCC[C@H]1C(=O)N1CCC[C@H]1C(=O)N[C@@H](CO)C(N)=O [Example 452]
hGCGR; [1]
  EC50: > 9950 nM
hGCGR; [2]
  EC50: > 9950 nM
hGLP-1R; [3]
  Emax: 117%
hGLP-1R; [4]
  EC50: 0.259 nM
hGIPR; [5]
  Emax: 100%
hGIPR; [6]
  EC50: 0.0192 nM

## CC[C@H](C)[C@H](NC(=O)[C@H](CC(C)C)NC(=O)[C@](C)(Cc1ccc(O)cc1)NC(=O)[C@H](CCCCNC(=O)COCCOCCNC(=O)CCCCCCCNC(=O)CC[C@H](NC(=O)CCCCCCCCCOc1ccc(C(=O)O)cc1)C(=O)O)NC(=O)[C@@H](NC(=O)[C@H](Cc1ccccc1)NC(=O)[C@H](CCCN)NC(=O)C(C)(C)NC(=O)[C@H](CCC(N)=O)NC(=O)[C@H](C)NC(=O)[C@H](CCC(N)=O)NC(=O)[C@H](CCCN)NC(=O)[C@H](CC(=O)O)NC(=O)[C@H](CC(C)C)NC(=O)[C@](C)(CC(C)C)NC(=O)[C@@H](NC(=O)C(C)(C)NC(=O)[C@H](Cc1ccncc1)NC(=O)[C@H](CC(=O)O)NC(=O)[C@H](CO)NC(=O)[C@@H](NC(=O)[C@](C)(Cc1ccccc1F)NC(=O)[C@@H](NC(=O)CNC(=O)[C@H](CCC(=O)O)NC(=O)C(C)(C)NC(=O)[C@@H](N)Cc1ccc(O)cc1)[C@@H](C)O)[C@@H](C)O)[C@@H](C)CC)[C@@H](C)CC)C(=O)N[C@@H](CCCCNC(=O)COCCOCCNC(=O)CCCCCCCNC(=O)CC[C@H](NC(=O)CCCCCCCCCOc1ccc(C(=O)O)cc1)C(=O)O)C(=O)NCC(=O)NCC(=O)N1CCC[C@H]1C(=O)N[C@@H](CO)C(=O)N[C@@H](CO)C(=O)NCC(=O)N[C@@H](C)C(=O)N1CCC[C@H]1C(=O)N1CCC[C@H]1C(=O)N1CCC[C@H]1C(=O)N[C@@H](CO)C(N)=O [Example 454]
hGCGR; [7]
  EC50: > 9950 nM
hGCGR; [8]
  EC50: > 9950 nM
hGLP-1R; [9]
  Emax: 114%
hGLP-1R; [10]
  EC50: 0.266 nM
hGIPR; [11]
  Emax: 91.5%
hGIPR; [12]
  EC50: 0.0202 nM

## CC[C@H](C)[C@H](NC(=O)[C@H](CC(C)C)NC(=O)[C@](C)(Cc1ccc(O)cc1)NC(=O)[C@H](CCCCNC(=O)CCCCCCCNC(=O)COCCOCCNC(=O)CC[C@H](NC(=O)CCCCCCCCCOc1ccc(C(=O)O)cc1)C(=O)O)NC(=O)[C@@H](NC(=O)[C@H](Cc1ccccc1)NC(=O)[C@H](CCCN)NC(=O)C(C)(C)NC(=O)[C@H](CCC(N)=O)NC(=O)[C@H](C)NC(=O)[C@H](CCC(N)=O)NC(=O)[C@H](CCCN)NC(=O)[C@H](CC(=O)O)NC(=O)[C@H](CC(C)C)NC(=O)[C@](C)(CC(C)C)NC(=O)[C@@H](NC(=O)C(C)(C)NC(=O)[C@H](Cc1ccncc1)NC(=O)[C@H](CC(=O)O)NC(=O)[C@H](CO)NC(=O)[C@@H](NC(=O)[C@](C)(Cc1ccccc1F)NC(=O)[C@@H](NC(=O)CNC(=O)[C@H](CCC(=O)O)NC(=O)C(C)(C)NC(=O)[C@@H](N)Cc1ccc(O)cc1)[C@@H](C)O)[C@@H](C)O)[C@@H](C)CC)[C@@H](C)CC)C(=O)N[C@@H](CCCCNC(=O)CCCCCCCNC(=O)COCCOCCNC(=O)CC[C@H](NC(=O)CCCCCCCCCOc1ccc(C(=O)O)cc1)C(=O)O)C(=O)NCC(=O)NCC(=O)N1CCC[C@H]1C(=O)N[C@@H](CO)C(=O)N[C@@H](CO)C(=O)NCC(=O)N[C@@H](C)C(=O)N1CCC[C@H]1C(=O)N1CCC[C@H]1C(=O)N1CCC[C@H]1C(=O)N[C@@H](CO)C(N)=O [Example 456]
hGCGR; [7]
  EC50: > 9950 nM
hGCGR; [8]
  EC50: > 9950 nM
hGLP-1R; HEK293, read-out: hGLP-1R Emax, % ± SEM, cAMP, 37° C., 0.1% bovine casein and 1.0% human serum albumin
  Emax: 112%
hGLP-1R; [9]
  Emax: 116%
hGLP-1R; [10]
  EC50: 0.341 nM
hGIPR; [11]
  Emax: 94.7%
hGIPR; [12]
  EC50: 0.0236 nM
hGIPR; hGIPR EC50, nM (SEM, n), 37° C., 0.1% bovine casein and 1.0% human serum albumin, geometric mean (SEM, n)
  EC50: 0.878 nM

## CC[C@H](C)[C@H](NC(=O)[C@H](CC(C)C)NC(=O)[C@](C)(Cc1ccc(O)cc1)NC(=O)[C@H](CCCCNC(=O)COCCOCCNC(=O)CC[C@H](NC(=O)CCCCCCCCCCCCC(=O)O)C(=O)O)NC(=O)[C@@H](NC(=O)[C@H](Cc1ccccc1)NC(=O)[C@H](CCCN)NC(=O)C(C)(C)NC(=O)[C@H](CCC(N)=O)NC(=O)[C@H](C)NC(=O)[C@H](CCC(N)=O)NC(=O)[C@H](CCCN)NC(=O)[C@H](CC(=O)O)NC(=O)[C@H](CC(C)C)NC(=O)[C@](C)(CC(C)C)NC(=O)[C@@H](NC(=O)C(C)(C)NC(=O)[C@H](Cc1ccncc1)NC(=O)[C@H](CC(=O)O)NC(=O)[C@H](CO)NC(=O)[C@@H](NC(=O)[C@](C)(Cc1ccccc1F)NC(=O)[C@@H](NC(=O)CNC(=O)[C@H](CCC(=O)O)NC(=O)C(C)(C)NC(=O)[C@@H](N)Cc1ccc(O)cc1)[C@@H](C)O)[C@@H](C)O)[C@@H](C)CC)[C@@H](C)CC)C(=O)N[C@@H](CCCCNC(=O)COCCOCCNC(=O)CC[C@H](NC(=O)CCCCCCCCCCCCC(=O)O)C(=O)O)C(=O)NCC(=O)NCC(=O)N1CCC[C@H]1C(=O)N[C@@H](CO)C(=O)N[C@@H](CO)C(=O)NCC(=O)N[C@@H](C)C(=O)N1CCC[C@H]1C(=O)N1CCC[C@H]1C(=O)N1CCC[C@H]1C(=O)N[C@@H](CO)C(N)=O [Example 459]
hGCGR; [1]
  EC50: > 9950 nM
hGCGR; [2]
  EC50: > 9950 nM
hGLP-1R; [3]
  Emax: 120%
hGLP-1R; [4]
  EC50: 0.18 nM
hGIPR; [5]
  Emax: 89.3%
hGIPR; [6]
  EC50: 0.013 nM
